From patent publication US11021486B2, “Coumarin-like cyclic compound as MEK inhibitor and use thereof” (CSTONE PHARMACEUTICALS, priority 2017, dated 2021)
Read-outs that look alike come from different tables or passages of the source.

What was measured:
[1] = biological target: T1, activated MEK1 (Homo sapiens, UniProt Q02750); test: MEK Lance Ultra experiment; assay type: biochemical; conditions: 0.07 nM activated MEK1, 2 nM non-activated ERK, 50 μM ATP; read-out: MEK potency IC50
T1 construct: purchased Millipore 14-429
Protocol: Biological Test Method 1: MEK Lance Ultra Experiment Compounds were serially diluted three-fold to 10 concentrations, two duplicates were set. Final test concentrations of the compounds ranged from 10 μM to 0.51 nM. 0.07 nM activated MEK1 (Millipore #14-429) and 2 nM non-activated ERK (Millipore #14-515) were mixed with the compounds or DMSO, the mixture was incubated at 23° C. for 30 minutes. Then 50 nM ULight labeled MBP (PerkinElmer #TRF0109-M) and 50 μM ATP (Invitrogen #PV3227) were added to initiate the reaction, and the mixture was incubated at 23° C. for 90 minutes. After the reaction was stopped by adding EDTA at a final concentration of 15 mM, 2 nM Eu-labeled anti-phosphorylated antibody (PerkinElmer #TRF0201-M) was added and incubated for 1 hour. The fluorescence signal data (excitation band: 320 nm; emission band: 665 nM/615 nM) was determined by an Envision microplate reader (PerkinElmer). XLfit5 software was used for data analysis and mapping.

[2] = system: HT29 cells; test: Cell viability experiment (Cell Titer-Glo), HT29; assay type: cell-based, human
Protocol: (§1) Biological Test Method 2: Cell Viability Experiment
(§2) HT29 and A375 cells were plated in a 96-well cell culture plate at a density of 40,000 cells/well and 20,000 cells/well respectively, and the cells were cultured overnight. The compounds were serially diluted in a gradient of 1:3, the dilutions were added to the cell culture medium, and incubated with the cells in a 37° C. incubator for 3 days. The 96-well cell culture plate was taken from the incubator and equilibrated at room temperature for 30 minutes, then Cell Titer-Glo reagent (Promega Cat #G7573) was added at a ratio of 1:2, and the mixture was mixed thoroughly on a shaker for 2 minutes to promote cell lysis. The cell culture plate was incubated at room temperature for 10 minutes and then read on an Envision microplate reader (PerkinElmer). XLfit5 software was used for data analysis and mapping.

[3] = system: A375 cells; test: Cell viability experiment (Cell Titer-Glo), A375; assay type: cell-based
Protocol: as §1, §2

[4] = system: HT-29 cell subcutaneous xenograft tumor; test: In vivo pharmacodynamics study on HT-29 cell subcutaneous xenograft tumor model; design: species or system BALB/c nude mouse; conditions: QD
Protocol: Biological Test Method 3: In Vivo Pharmacodynamics Study on HT-29 Cell Subcutaneous Xenograft Tumor Model in BALB/c Nude Mouse
Human colon cancer HT-29 cells (ATCC-HTB-38) were cultured in monolayer in vitro, with McCoy's 5a medium (Gibco, 1835937) supplemented with 10% fetal bovine serum, 100 U/mL penicillin and 100 μg/mL streptomycin, at 37° C. under 5% CO2. The cells were conventionally digested with trypsin-EDTA and passaged twice a week. When the cell saturation was 80%-90%, the cells were collected, counted and inoculated. 0.1 mL (5×10^6) of HT-29 cells was subcutaneously inoculated into the right back of each nude mouse. […] The diameter of the tumor was measured twice a week with a vernier caliper. The tumor volume is calculated by the formula: V=0.5a×b^2, wherein a and b represent the length and width respectively. The antitumor activity of the compounds was evaluated by TGI (%), which reflects the tumor growth inhibition rate. Calculation of TGI (%): TGI (%)=[(1−(average tumor volume at the end of administration in a treatment group−average tumor volume at the start of treatment in this treatment group))/(average tumor volume at the end of treatment in the solvent control group−average tumor volume at the start of treatment in the solvent control group)]×100%.

[5] = Pharmacokinetics study of the compounds in C57BL/6 mice; assay type: in vivo; conditions: male, mouse, single intravenous and oral dose, plasma; for bioavailability: read-out: Bioavailability F; for AUC: read-out: Comcentration quadrature AUC; for half-life: read-out: Half life T1/2 (converted)
Protocol: Biological Test Method 4: Pharmacokinetics Study of the Compounds in C57BL/6 Mice Experimental Materials: C57BL/6 mice (male, 18-22 g, 7-9 weeks old, Shanghai Lingchang) Experimental Procedure: The pharmacokinetic characteristics of the compounds in rodents were determined after intravenous and oral administration of the compounds by standard protocols. In the experiment, candidate compounds were formulated into clear solutions, and intravenously and orally administrated to […] in a single dose. The menstruum for intravenous and oral administration was DMSO, PEG and water at a certain ratio or Solutol, HPMC and SLS aqueous solutions at a certain ratio. The whole blood samples within 24 hours were collected, centrifuged at 3,000 rpm for 15 minutes, and the supernatants were isolated to obtain plasma samples. An acetonitrile solution containing an internal standard with a volume of 4 times as the plasma sample volume was added to precipitate the protein. After centrifugation, the supernatant was collected and an equal volume of water was added. After centrifugation, the supernatant was collected and injected to quantitatively analyze the blood drug concentration by LC-MS/MS analysis method, and the pharmacokinetic parameters were calculated, e.g., peak concentration, peak time, clearance, half-life, area under the drug concentration-time curve, bioavailability, etc.

[6] = Homo sapiens, HT-29, 72 h, HT29 cells, 3 days incubation, read-out: HT29 IC50
[7] = Homo sapiens, A-375, 72 h, A375 cells, 3 days incubation, read-out: A375 IC50

T1 sequence (Q02750 whole entry): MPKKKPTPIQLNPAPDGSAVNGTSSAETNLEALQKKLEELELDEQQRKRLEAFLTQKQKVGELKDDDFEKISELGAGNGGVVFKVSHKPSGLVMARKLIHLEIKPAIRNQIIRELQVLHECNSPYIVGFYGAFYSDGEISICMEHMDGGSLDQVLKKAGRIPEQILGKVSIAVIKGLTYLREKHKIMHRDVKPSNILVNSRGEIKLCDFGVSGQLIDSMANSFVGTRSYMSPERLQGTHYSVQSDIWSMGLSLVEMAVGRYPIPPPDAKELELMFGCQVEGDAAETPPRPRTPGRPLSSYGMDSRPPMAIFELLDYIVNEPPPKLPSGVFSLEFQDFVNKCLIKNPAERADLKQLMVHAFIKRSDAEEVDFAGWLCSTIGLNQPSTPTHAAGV

| SMILES | IC50 [1] [nM] | IC50 [2, 6] [nM] | IC50 [3, 7] [nM] | further results |
| --- | --- | --- | --- | --- |
| Cc1c(Nc2ccc(I)cc2F)c2c(=O)n(C3CC3)c(C)c(-c3cccc(NS(C)(=O)=O)c3)c2oc1=O [WX066] | 77.3 | 7.44 | 4.58 | TGI ([4]; 0.5 mpk, 21 days): 89%; clearance [5]: 1.85 mL/min/kg; bioavailability [5]: 99.2%; AUC [5]: 28.6 µM·h; half-life [5]: 7.62 h |
| Cc1c(Nc2ccc(I)cc2F)c2c(=O)n(C3CC3)c(C)c(-c3cccc(N[S+]([O-])C(C)(C)C)c3)c2oc1=O (centres unmarked) [WX091] | 128 | 35.6 | 10.1 |  |
| Cc1c(NS(C)(=O)=O)cccc1-c1c(C)n(C2CC2)c(=O)c2c(Nc3ccc(I)cc3F)c(C)c(=O)oc12 (single isomer, unassigned) [WX113] | 5.61 | 0.82 | 0.37 | TGI ([4]; 0.2 mpk, 25 days (5 days administration, and 2 days break)): 82.8%; clearance [5]: 2.92 mL/min/kg; bioavailability [5]: 73.1%; AUC [5]: 17.6 µM·h; half-life [5]: 4.64 h |
| Cc1c(Nc2ccc(I)cc2F)c2c(=O)n(C3CC3)c(C)c(-c3ccnc(NS(C)(=O)=O)c3)c2oc1=O [WX105] | 282 | 16.2 | 8.19 |  |
| CNCc1cccc(-c2c(C)n(C3CC3)c(=O)c3c(Nc4ccc(I)cc4F)c(C)c(=O)oc23)c1 [WX097] | 29.5 | 105 | 17.2 |  |
| CC(=O)Nc1cccc(-c2c(C)n(C3CC3)c(=O)c3c(Nc4ccc(I)cc4F)c(C)c(=O)oc23)c1 [WX034] | 27.8 | 6.39 | 1.48 | TGI ([4]; 3 mpk, 21 days): 90.6%; clearance [5]: 1.84 mL/min/kg; bioavailability [5]: 68.7%; AUC [5]: 30.5 µM·h; half-life [5]: 5.41 h |
| COCCNc1cccc(-c2c(C)n(C3CC3)c(=O)c3c(Nc4ccc(I)cc4F)c(C)c(=O)oc23)c1 [WX087] | 152 | 23.7 | 9.42 |  |
| Cc1c(Nc2ccc(I)cc2F)c2c(=O)n(C3CC3)c(C)c(Cc3cccc(N)c3)c2oc1=O [WX101] | 17.4 | 12.6 | 1.76 |  |
| CC(=O)Nc1ccc(C)c(-c2c(C)n(C3CC3)c(=O)c3c(Nc4ccc(I)cc4F)c(C)c(=O)oc23)c1 [WX036] | 44.3 | 69 | 33.6 |  |
| Cc1c(Nc2ccc(I)cc2F)c2c(=O)n(C3CC3)c(C)c(-c3cccc(NS(C)(=O)=O)c3Cl)c2oc1=O (single isomer, unassigned) [WX117] | 424 |  |  | IC50 ([2]; read-out: HT29 IC50, HT29 cells, 3 days incubation): 18.7 nM; IC50 ([3]; read-out: A375 IC50, A375 cells, 3 days incubation): 7.18 nM |
| Cc1c(Nc2ccc(I)cc2F)c2c(=O)n(C3CC3)c(C)c(-c3cccc(N(S(C)(=O)=O)S(C)(=O)=O)c3)c2oc1=O [WX067] | 199 | 75.3 | 25.1 |  |
| Cc1c(Nc2ccc(I)cc2F)c2c(=O)n(C3CC3)c(C)c(-c3cccc(NC(=O)N4CCOCC4)c3)c2oc1=O [WX085] | 118 | 9.34 | 4.65 |  |
| CC(=O)Nc1cccc(-c2c(C)n(C3CC3)c(=O)c3c(Nc4ccc(I)cc4F)c(C)c(=O)oc23)n1 [WX039] | 52 | 4.27 | 1.61 |  |
| Cc1c(NS(C)(=O)=O)cccc1-c1c(C)n(C2CC2)c(=O)c2c(Nc3ccc(I)cc3F)c(C)c(=O)oc12 [WX086] | 29.6 |  |  | IC50 ([2]; Homo sapiens, HT-29, 72 h, read-out: HT29 IC50, HT29 cells, 3 days incubation): 0.62 nM; IC50 ([3]; Homo sapiens, A-375, 72 h, read-out: A375 IC50, A375 cells, 3 days incubation): 0.4 nM; TGI ([4]; 0.5 mpk (0-11 D): 0.35 mpk (12-21 D), 21 days): 83.1%; clearance [5]: 2.2 mL/min/kg; bioavailability [5]: 76.8%; AUC [5]: 23.4 µM·h; half-life [5]: 7 h |
| Cc1c(Nc2ccc(I)cc2F)c2c(=O)n(C3CC3)c(C)c(-c3cccc(NS(=O)(=O)C(C)(C)C)c3)c2oc1=O [WX095] | 48.6 | 1.77 | 0.79 |  |
| Cc1c(CS(C)(=O)=O)cccc1-c1c(C)n(C)c(=O)c2c(Nc3ccc(I)cc3F)c(C)c(=O)oc12 [WX109] | 119 | 90.7 | 29.2 |  |
| CC(=O)Nc1cccc(-c2c(C)n(C)c(=O)c3c(Nc4ccc(I)cc4F)c(C)c(=O)oc23)c1 [WX040] | 581 | 64.1 | 69.7 |  |
| CC(=O)Nc1cccc(-c2c(C)[nH]c(=O)c3c(Nc4ccc(I)cc4F)c(C)c(=O)oc23)c1 [WX049] | 67 | 7.4 | 3.08 |  |
| CC(=O)Nc1cccc(-c2c(C)n(C3CCOCC3)c(=O)c3c(Nc4ccc(I)cc4F)c(C)c(=O)oc23)c1 [WX059] | 32.4 | 923 | 1650 |  |
| Cc1c(Nc2ccc(I)cc2F)c2c(=O)n(C3CC3)c(C)c(-c3cccc(NC(=O)C4COC4)c3)c2oc1=O [WX065] | 36.2 | 7.38 | 4.31 |  |
| Cc1c(Nc2ccc(I)cc2F)c2c(=O)n(C3CC3)c(C)cc2oc1=O [WX035] | 111 | 98.8 | 32.9 |  |
| CC(=O)Nc1ccc(F)c(-c2c(C)n(C3CC3)c(=O)c3c(Nc4ccc(I)cc4F)c(C)c(=O)oc23)c1 [WX048] | 581 | 101 | 52.6 |  |
| Cc1c(Nc2ccc(I)cc2F)c2c(=O)n(C3CC3)c(C)c(-c3cccc(C(N)=O)c3)c2oc1=O [WX112] | 52.9 | 20.3 | 6.04 |  |
